Data published in patent US4588726A, “1-cyclopropyl-6-fluoro-1 ,4-dihydro-4-oxo-7-(3-oxo-1-piperazinyl)-3-quinolinecarboxylic acid antibacterial agents” (Bayer Aktiengesellschaft, priority 1984, dated 1986).
Converted amounts (≈) assume the structure as drawn.

Columns and labels:
Staph.aur. FK 422 = assay: MIC of the compound of Example 1 compared with norfloxacin, Staph.aur. FK 422; type: cell-based; conditions: Staphylococcus aureus
From the text: (§1) Tables 1 and 2 below show examples of the MIC values of the compound of Example 1 compared with norfloxacin.

Staph. 1756 = assay: MIC of the compound of Example 1 compared with norfloxacin, Staph. 1756; type: cell-based; conditions: Staphylococcus
From the text: as §1

Staph. 133 = assay: MIC of the compound of Example 1 compared with norfloxacin, Staph. 133; type: cell-based; conditions: Staphylococcus
From the text: as §1

E. coli C14 = assay: Microtitre assay/urine, MIC, E. coli C14; type: cell-based; conditions: Escherichia coli
From the text: as §1
(§2) Microtitre assay/urine (80% pooled human urine,
(§3) 20% isosensitest medium)

Staph. 25151 = assay: Microtitre assay/urine, MIC, Staph. 25151; type: cell-based; conditions: Staphylococcus
From the text: as §1, §2, §3

[1] = system: Gram-positive and Gram-negative organisms; conditions: J. Med. Chem. 23, 1358 (1980); cited from earlier work
[2] = C14, pH 7.1, E. coli C14, head prints only pH 7.1
[3] = C14, pH 7.1, E. coli C14, urine pH 7.1, 80% pooled human urine, 20% isosensitest medium
[4] = pH 7.1, Staph. 25151, head prints only pH 7.1
[5] = pH 7.1, Staph. 25151, urine pH 7.1, 80% pooled human urine, 20% isosensitest medium

| Compound | MIC (Staph.aur. FK 422) | MIC (Staph. 1756) | MIC (Staph. 133) | MIC (E. coli C14; [2]) | MIC (E. coli C14; [3]) | MIC (Staph. 25151; [4]) | MIC (Staph. 25151; [5]) | antibacterial properties [1] |
| --- | --- | --- | --- | --- | --- | --- | --- | --- |
| O=C1CN(c2cc3c(cc2F)c(=O)c(C(=O)O)cn3C2CC2)CCN1 [Example 1, 1-cyclopropyl-6-fluoro-1,4-dihydro-4-oxo-7-(3-oxo-1-piperazinyl)-3-quinolinecarboxylic acid] | 0.5 µg/mL | 0.25 µg/mL | 0.5 µg/mL | 0.25 µg/mL (≈ 0.724 µM) | 0.25 µg/mL (≈ 0.724 µM) | 0.5 µg/mL (≈ 1.45 µM) | 0.25 µg/mL (≈ 0.724 µM) | – |
| CCn1cc(C(=O)O)c(=O)c2cc(F)c(N3CCNCC3)cc21 [Norfloxacin, 1-ethyl-6-fluoro-1,4-dihydro-4-oxo-7-(1-piperazinyl)-3-quinolinecarboxylicacid] | 2 µg/mL | 2 µg/mL | 1 µg/mL | 0.5 µg/mL (≈ 1.57 µM) | 4 µg/mL (≈ 12.5 µM) | 4 µg/mL (≈ 12.5 µM) | 4 µg/mL (≈ 12.5 µM) | has antibacterial properties |
